Experimental data published in PubChem BioAssay AID1919015 (Molecular Pharmacology Branch, DTP, NCI, 2023).
Values joined by “and” are separate entries in the source; they are usually repeats but may differ in a detail not shown here. Equal values may be shown once.

Test system: OVCAR-5 complex spheroids with HUVEC/MSC, viability, % test/control
Assay: Anticancer human tumor OVCAR-5 cell line growth inhibition [AhR];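 also: spheroids exposed to compounds for 7 days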;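 as to viability, T/C: 100% = DMSO vehicle control wells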
Conditions: for viability, T/C: stronger effect = lower value
How it was run: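 Complex tumor spheroids co-cultured with HUVEC and human MSC stroma; AhR antagonists tested in combination with standard-of-care and investigational agents. Top concentration at or near clinical Cmax (else 10 microM), half-log dilutions; growth expressed as percent test/control.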

[1] = curve of first compound, second compound 0.1 µM
[2] = curve of first compound, second compound 0.316 µM
[3] = curve of first compound, second compound 1 µM
[4] = curve of first compound, second compound 3.16 µM
[5] = curve of first compound, second compound 10 µM
[6] = second compound 0.1 µM, first compound 0.0316 µM
[7] = second compound 0.1 µM, first compound 0.1 µM
[8] = second compound 0.1 µM, first compound 0.316 µM
[9] = second compound 0.1 µM, first compound 1 µM
[10] = second compound 0.1 µM, first compound 3.16 µM
[11] = second compound 0.1 µM, first compound 10 µM
[12] = second compound 0.316 µM, first compound 0.0316 µM
[13] = second compound 0.316 µM, first compound 0.1 µM
[14] = second compound 0.316 µM, first compound 0.316 µM
[15] = second compound 0.316 µM, first compound 1 µM
[16] = second compound 0.316 µM, first compound 3.16 µM
[17] = second compound 0.316 µM, first compound 10 µM
[18] = second compound 1 µM, first compound 0.0316 µM
[19] = second compound 1 µM, first compound 0.1 µM
[20] = second compound 1 µM, first compound 0.316 µM
[21] = second compound 1 µM, first compound 1 µM
[22] = second compound 1 µM, first compound 3.16 µM
[23] = second compound 1 µM, first compound 10 µM
[24] = second compound 3.16 µM, first compound 0.0316 µM
[25] = second compound 3.16 µM, first compound 0.1 µM
[26] = second compound 3.16 µM, first compound 0.316 µM
[27] = second compound 3.16 µM, first compound 1 µM
[28] = second compound 3.16 µM, first compound 3.16 µM
[29] = second compound 3.16 µM, first compound 10 µM
[30] = second compound 10 µM, first compound 0.0316 µM
[31] = second compound 10 µM, first compound 0.1 µM
[32] = second compound 10 µM, first compound 0.316 µM
[33] = second compound 10 µM, first compound 1 µM
[34] = second compound 10 µM, first compound 3.16 µM
[35] = second compound 10 µM, first compound 10 µM

## O=C(C=Cc1cccc(S(=O)(=O)Nc2ccccc2)c1)NO + CC(CO)NC(=O)c1cc(-c2ccc(Cl)cc2)nn(-c2cnn(C)c2)c1=O
[1]
  IC50: 1050 nM
[2]
  IC50: 875 nM
[3]
  IC50: 995 nM
[4]
  IC50: 819 nM
[5]
  IC50: 928 nM
[6]
  viability, T/C: 99.8%
[7]
  viability, T/C: 95.7%
[8]
  viability, T/C: 76%
[9]
  viability, T/C: 52.2%
[10]
  viability, T/C: 23.3%
[11]
  viability, T/C: 6.15%
[12]
  viability, T/C: 101%
[13]
  viability, T/C: 95%
[14]
  viability, T/C: 76.4%
[15]
  viability, T/C: 45.9%
[16]
  viability, T/C: 21%
[17]
  viability, T/C: 6.73%
[18]
  viability, T/C: 108%
[19]
  viability, T/C: 101%
[20]
  viability, T/C: 79.1%
[21]
  viability, T/C: 50%
[22]
  viability, T/C: 22.3%
[23]
  viability, T/C: 5.69%
[24]
  viability, T/C: 103%
[25]
  viability, T/C: 91.9%
[26]
  viability, T/C: 72.4%
[27]
  viability, T/C: 45.7%
[28]
  viability, T/C: 19.9%
[29]
  viability, T/C: 5.14%
[30]
  viability, T/C: 89.4%
[31]
  viability, T/C: 84.2%
[32]
  viability, T/C: 72.4%
[33]
  viability, T/C: 49.3%
[34]
  viability, T/C: 19.8%
[35]
  viability, T/C: 4.82%

## CC1(C)CCC(CN2CCN(c3ccc(C(=O)NS(=O)(=O)c4ccc(NCC5CCOCC5)c([N+](=O)[O-])c4)c(Oc4cnc5[nH]ccc5c4)c3)CC2)=C(c2ccc(Cl)cc2)C1 + CC(CO)NC(=O)c1cc(-c2ccc(Cl)cc2)nn(-c2cnn(C)c2)c1=O
[1]
  IC50: > 10000 nM
[2]
  IC50: > 10000 nM
[3]
  IC50: > 10000 nM
[4]
  IC50: > 10000 nM
[5]
  IC50: > 10000 nM
[6]
  viability, T/C: 107%
[7]
  viability, T/C: 107%
[8]
  viability, T/C: 109%
[9]
  viability, T/C: 113%
[10]
  viability, T/C: 118%
[11]
  viability, T/C: 51.4%
[12]
  viability, T/C: 111%
[13]
  viability, T/C: 107%
[14]
  viability, T/C: 113%
[15]
  viability, T/C: 114%
[16]
  viability, T/C: 118%
[17]
  viability, T/C: 50.6%
[18]
  viability, T/C: 115%
[19]
  viability, T/C: 116%
[20]
  viability, T/C: 122%
[21]
  viability, T/C: 120%
[22]
  viability, T/C: 122%
[23]
  viability, T/C: 53.8%
[24]
  viability, T/C: 102%
[25]
  viability, T/C: 106%
[26]
  viability, T/C: 104%
[27]
  viability, T/C: 111%
[28]
  viability, T/C: 114%
[29]
  viability, T/C: 53.8%
[30]
  viability, T/C: 100%
[31]
  viability, T/C: 102%
[32]
  viability, T/C: 104%
[33]
  viability, T/C: 104%
[34]
  viability, T/C: 106%
[35]
  viability, T/C: 57.6%

## COc1cc(C2c3cc4c(cc3C(OC3OC5COC(C)OC5C(O)C3O)C3COC(=O)C23)OCO4)cc(OC)c1O (configuration not stated) + CC(CO)NC(=O)c1cc(-c2ccc(Cl)cc2)nn(-c2cnn(C)c2)c1=O
[1]
  IC50: 3960 nM
[2]
  IC50: 3880 nM
[3]
  IC50: 5440 nM
[4]
  IC50: 3920 nM
[5]
  IC50: 3100 nM
[6]
  viability, T/C: 106%
[7]
  viability, T/C: 106%
[8]
  viability, T/C: 100%
[9]
  viability, T/C: 82.8%
[10]
  viability, T/C: 52.7%
[11]
  viability, T/C: 38.1%
[12]
  viability, T/C: 105%
[13]
  viability, T/C: 109%
[14]
  viability, T/C: 101%
[15]
  viability, T/C: 86%
[16]
  viability, T/C: 52.7%
[17]
  viability, T/C: 36.6%
[18]
  viability, T/C: 115%
[19]
  viability, T/C: 112%
[20]
  viability, T/C: 107%
[21]
  viability, T/C: 84.9%
[22]
  viability, T/C: 59.2%
[23]
  viability, T/C: 40.3%
[24]
  viability, T/C: 98.9%
[25]
  viability, T/C: 102%
[26]
  viability, T/C: 98%
[27]
  viability, T/C: 71.4%
[28]
  viability, T/C: 56.2%
[29]
  viability, T/C: 37.4%
[30]
  viability, T/C: 96.1%
[31]
  viability, T/C: 97.1%
[32]
  viability, T/C: 82.6%
[33]
  viability, T/C: 63.5%
[34]
  viability, T/C: 52.7%
[35]
  viability, T/C: 40.1%

## O=C(C=Cn1cnc(-c2cc(C(F)(F)F)cc(C(F)(F)F)c2)n1)NNc1cnccn1 + Cc1ccccc1N=Nc1ccc(NC(=O)c2ccnn2C)c(C)c1
[1]
  IC50: 1750 nM
[2]
  IC50: 2350 nM
[3]
  IC50: 2830 nM
[4]
  IC50: 2120 nM
[5]
  IC50: 1640 nM
Second compound 0.1 µM, first compound 0.00949 µM
  viability, T/C: 109%
Second compound 0.1 µM, first compound 0.03 µM
  viability, T/C: 113%
Second compound 0.1 µM, first compound 0.0949 µM
  viability, T/C: 102%
Second compound 0.1 µM, first compound 0.3 µM
  viability, T/C: 83.4%
Second compound 0.1 µM, first compound 0.949 µM
  viability, T/C: 59.2%
Second compound 0.1 µM, first compound 3 µM
  viability, T/C: 42.2%
Second compound 0.316 µM, first compound 0.00949 µM
  viability, T/C: 115%
Second compound 0.316 µM, first compound 0.03 µM
  viability, T/C: 109%
Second compound 0.316 µM, first compound 0.0949 µM
  viability, T/C: 100%
Second compound 0.316 µM, first compound 0.3 µM
  viability, T/C: 82.4%
Second compound 0.316 µM, first compound 0.949 µM
  viability, T/C: 59.6%
Second compound 0.316 µM, first compound 3 µM
  viability, T/C: 47.5%
Second compound 1 µM, first compound 0.00949 µM
  viability, T/C: 114%
Second compound 1 µM, first compound 0.03 µM
  viability, T/C: 116%
Second compound 1 µM, first compound 0.0949 µM
  viability, T/C: 106%
Second compound 1 µM, first compound 0.3 µM
  viability, T/C: 90%
Second compound 1 µM, first compound 0.949 µM
  viability, T/C: 64.6%
Second compound 1 µM, first compound 3 µM
  viability, T/C: 49.2%
Second compound 3.16 µM, first compound 0.00949 µM
  viability, T/C: 114%
Second compound 3.16 µM, first compound 0.03 µM
  viability, T/C: 118%
Second compound 3.16 µM, first compound 0.0949 µM
  viability, T/C: 113%
Second compound 3.16 µM, first compound 0.3 µM
  viability, T/C: 90.8%
Second compound 3.16 µM, first compound 0.949 µM
  viability, T/C: 66.7%
Second compound 3.16 µM, first compound 3 µM
  viability, T/C: 43%
Second compound 10 µM, first compound 0.00949 µM
  viability, T/C: 108%
Second compound 10 µM, first compound 0.03 µM
  viability, T/C: 111%
Second compound 10 µM, first compound 0.0949 µM
  viability, T/C: 108%
Second compound 10 µM, first compound 0.3 µM
  viability, T/C: 89.3%
Second compound 10 µM, first compound 0.949 µM
  viability, T/C: 63%
Second compound 10 µM, first compound 3 µM
  viability, T/C: 36.4%

## O=C(C=Cn1cnc(-c2cc(C(F)(F)F)cc(C(F)(F)F)c2)n1)NNc1cnccn1
Compound 0.00949 µM
  viability, T/C: 109% and 108% and 104%
Compound 0.03 µM
  viability, T/C: 108% and 109% and 105%
Compound 0.0949 µM
  viability, T/C: 101% and 99.5% and 96.1%
Compound 0.3 µM
  viability, T/C: 85.9% and 76.1% and 78.1%
Compound 0.949 µM
  viability, T/C: 68.2% and 58.4% and 60.8%
Compound 3 µM
  viability, T/C: 47% and 42% and 40.6%
Curve of compound
  IC50: 2560 nM and 1610 nM and 1710 nM
